Measured values from US8691753B2 (priority 2009, dated 2014).
Like-named read-outs stand apart in the source and are kept apart here.

Legend:
MMP-9h = MMP-9h (Homo sapiens (Human), UniProt P14780); experiment: Inhibition constant (Ki) on MMP-9h; assay type: biochemical; details: for Ki: human MMP-9
Procedure, shortened: (§1)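 Following an established literature procedure, each compound's inhibition constant was measured on the human form of each enzyme.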

MMP-13h = MMP-13h (Homo sapiens (Human), UniProt P45452); experiment: Inhibition constant (Ki) on MMP-13h; assay type: biochemical; details: for Ki: human MMP-13
Procedure, shortened: as §1

MMP-10h = MMP-10h (Homo sapiens (Human), UniProt P09238); experiment: Inhibition constant (Ki) on MMP-10h; assay type: biochemical; details: for Ki: human MMP-10
Sequence of MMP-10h (P09238 99-476): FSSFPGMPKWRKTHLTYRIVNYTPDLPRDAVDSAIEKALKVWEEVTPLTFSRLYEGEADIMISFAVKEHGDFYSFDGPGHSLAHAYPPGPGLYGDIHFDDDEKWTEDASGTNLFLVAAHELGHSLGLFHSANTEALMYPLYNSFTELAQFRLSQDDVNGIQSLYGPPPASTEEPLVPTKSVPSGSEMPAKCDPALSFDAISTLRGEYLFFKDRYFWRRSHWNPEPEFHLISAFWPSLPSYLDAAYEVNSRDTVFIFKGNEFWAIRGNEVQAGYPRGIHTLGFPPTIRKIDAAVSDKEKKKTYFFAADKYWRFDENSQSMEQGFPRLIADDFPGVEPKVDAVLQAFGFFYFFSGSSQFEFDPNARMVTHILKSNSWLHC

MMP-1h = MMP-1h (Homo sapiens (Human), UniProt P03956); experiment: Inhibition constant (Ki) on MMP-1h; assay type: biochemical; details: for Ki: human MMP-1
Sequence of MMP-1h (P03956 100-469): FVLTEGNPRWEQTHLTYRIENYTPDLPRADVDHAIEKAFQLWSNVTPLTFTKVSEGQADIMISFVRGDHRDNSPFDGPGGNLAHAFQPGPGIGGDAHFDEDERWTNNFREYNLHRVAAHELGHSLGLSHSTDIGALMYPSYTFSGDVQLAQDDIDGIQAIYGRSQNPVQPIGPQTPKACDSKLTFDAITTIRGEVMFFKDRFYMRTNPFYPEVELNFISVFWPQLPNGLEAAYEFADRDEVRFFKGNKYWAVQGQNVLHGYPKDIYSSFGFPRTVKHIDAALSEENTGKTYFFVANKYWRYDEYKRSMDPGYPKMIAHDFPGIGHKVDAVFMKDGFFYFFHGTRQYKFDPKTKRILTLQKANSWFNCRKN
Description: (§2) The inhibition constant Ki of these compounds has been determined according to the protocol described by Devel et al, 2006, J. Biol. Chem. (7).
(§3) In this table I and also in table II below, “h” corresponds to human. All of the compounds have therefore been evaluated on human MMPs.

human MMPs [1] = experiment: Inhibition of the panel of human MMPs (overall statements, selectivity); assay type: biochemical; details: other human MMPs versus MMP-12
MMP-12h [2] = biological target: T1, MMP-12h (Homo sapiens (Human), UniProt P39900); experiment: Inhibition constant (Ki) on MMP-12h; assay type: biochemical; details: for Ki: read-out: Ki MMP-12h, human MMP-12
T1 sequence (P39900 106-470): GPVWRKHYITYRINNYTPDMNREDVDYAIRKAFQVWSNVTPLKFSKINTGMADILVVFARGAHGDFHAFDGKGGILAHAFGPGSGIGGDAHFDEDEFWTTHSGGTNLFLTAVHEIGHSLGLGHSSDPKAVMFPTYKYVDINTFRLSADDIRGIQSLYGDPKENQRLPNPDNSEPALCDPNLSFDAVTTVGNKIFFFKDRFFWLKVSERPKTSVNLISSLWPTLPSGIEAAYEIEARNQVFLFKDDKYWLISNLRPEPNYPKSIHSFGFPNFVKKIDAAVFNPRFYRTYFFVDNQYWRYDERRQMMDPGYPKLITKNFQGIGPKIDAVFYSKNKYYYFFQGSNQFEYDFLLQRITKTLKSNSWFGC

MMP-2h = MMP-2h (Homo sapiens (Human), UniProt P08253); experiment: Inhibition constant (Ki) on MMP-2h; assay type: biochemical; details: for Ki: human MMP-2
Sequence of MMP-2h (P08253 110-660): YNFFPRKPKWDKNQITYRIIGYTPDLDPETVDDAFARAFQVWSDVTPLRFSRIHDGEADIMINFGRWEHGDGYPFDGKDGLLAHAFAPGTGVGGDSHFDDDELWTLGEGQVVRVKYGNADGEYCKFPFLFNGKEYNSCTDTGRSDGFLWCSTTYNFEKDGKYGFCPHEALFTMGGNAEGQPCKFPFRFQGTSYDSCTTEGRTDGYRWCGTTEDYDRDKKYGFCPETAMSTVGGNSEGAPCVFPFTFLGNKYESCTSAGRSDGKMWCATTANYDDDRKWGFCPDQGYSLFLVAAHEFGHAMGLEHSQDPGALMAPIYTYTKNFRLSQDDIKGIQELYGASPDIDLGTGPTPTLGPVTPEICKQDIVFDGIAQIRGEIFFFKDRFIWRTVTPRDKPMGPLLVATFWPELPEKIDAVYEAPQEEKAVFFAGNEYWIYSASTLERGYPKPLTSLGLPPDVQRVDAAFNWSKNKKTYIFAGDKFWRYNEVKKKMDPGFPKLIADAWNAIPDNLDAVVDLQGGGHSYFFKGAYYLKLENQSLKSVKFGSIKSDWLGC
Procedure, shortened: as §1

MMP-14h = MMP-14h (Homo sapiens (Human), UniProt P50281); experiment: Inhibition constant (Ki) on MMP-14h; assay type: biochemical; details: for Ki: human MMP-14
Procedure, shortened: as §1

MMP-8h = MMP-8h (Homo sapiens (Human), UniProt P22894); experiment: Inhibition constant (Ki) on MMP-8h; assay type: biochemical; details: for Ki: human MMP-8
Sequence of MMP-8h (P22894 101-467): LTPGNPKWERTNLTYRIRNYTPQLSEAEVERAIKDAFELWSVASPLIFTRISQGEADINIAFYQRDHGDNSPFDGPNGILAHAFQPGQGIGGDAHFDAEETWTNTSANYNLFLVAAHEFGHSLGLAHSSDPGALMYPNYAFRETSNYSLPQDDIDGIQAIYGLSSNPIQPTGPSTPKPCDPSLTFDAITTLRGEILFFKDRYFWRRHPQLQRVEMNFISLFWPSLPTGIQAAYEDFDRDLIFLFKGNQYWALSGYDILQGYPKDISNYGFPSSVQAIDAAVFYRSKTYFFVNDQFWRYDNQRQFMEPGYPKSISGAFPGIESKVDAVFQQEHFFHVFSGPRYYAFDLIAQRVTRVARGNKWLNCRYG

MMP-7h = MMP-7h (Homo sapiens (Human), UniProt P09237); experiment: Inhibition constant (Ki) on MMP-7h; assay type: biochemical; details: for Ki: human MMP-7
Sequence of MMP-7h (P09237 95-267): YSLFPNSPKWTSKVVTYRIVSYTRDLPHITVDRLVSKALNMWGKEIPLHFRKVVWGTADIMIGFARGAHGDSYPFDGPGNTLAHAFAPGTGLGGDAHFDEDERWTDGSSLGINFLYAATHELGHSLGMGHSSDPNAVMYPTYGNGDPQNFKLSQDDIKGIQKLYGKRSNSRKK
Description: as §2, §3

MMP-3h = MMP-3h (Homo sapiens (Human), UniProt P08254); experiment: Inhibition constant (Ki) on MMP-3h; assay type: biochemical; details: for Ki: human MMP-3
Sequence of MMP-3h (P08254 100-477): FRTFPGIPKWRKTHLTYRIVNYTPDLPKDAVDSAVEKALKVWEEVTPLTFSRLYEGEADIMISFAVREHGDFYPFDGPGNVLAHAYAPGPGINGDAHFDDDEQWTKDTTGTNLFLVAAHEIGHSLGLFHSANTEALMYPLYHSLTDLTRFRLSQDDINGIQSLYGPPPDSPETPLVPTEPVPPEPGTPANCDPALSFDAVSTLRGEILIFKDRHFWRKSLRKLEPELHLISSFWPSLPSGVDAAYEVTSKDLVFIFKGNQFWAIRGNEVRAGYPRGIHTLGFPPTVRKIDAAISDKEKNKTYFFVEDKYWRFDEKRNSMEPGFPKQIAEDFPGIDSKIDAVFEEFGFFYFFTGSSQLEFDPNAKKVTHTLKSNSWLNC
Procedure, shortened: as §1

[3] = Stability test in mouse blood; assay type: in vitro ADME; details: after 24 hours in mouse blood
Description: The loss of 50% of the starting material can be attributed to a phenomenon of nonspecific association of the compound with the wall of the eppendorf. It should be noted that this 50% loss of the compound was also observed after 24 hours for a solution at 10 nM in PBS buffer or in a solution at 1 μM of PBS (Bovine Serum Albumin).

human MMPs [4] = details: reported by Devel et al., J. Biol. Chem. 2006; cited from earlier work
MMP-12h [5] = biological target: T1, MMP-12h; details: reported by Devel et al., J. Biol. Chem. 2006; read-out: inhibition constant Ki for human MMP-12; cited from earlier work
[6] = Determination of the plasma concentration in mice after infusion; details: mouse, intravenous, 10 mg/kg

Sequence of MMP-9h (P14780 94-707): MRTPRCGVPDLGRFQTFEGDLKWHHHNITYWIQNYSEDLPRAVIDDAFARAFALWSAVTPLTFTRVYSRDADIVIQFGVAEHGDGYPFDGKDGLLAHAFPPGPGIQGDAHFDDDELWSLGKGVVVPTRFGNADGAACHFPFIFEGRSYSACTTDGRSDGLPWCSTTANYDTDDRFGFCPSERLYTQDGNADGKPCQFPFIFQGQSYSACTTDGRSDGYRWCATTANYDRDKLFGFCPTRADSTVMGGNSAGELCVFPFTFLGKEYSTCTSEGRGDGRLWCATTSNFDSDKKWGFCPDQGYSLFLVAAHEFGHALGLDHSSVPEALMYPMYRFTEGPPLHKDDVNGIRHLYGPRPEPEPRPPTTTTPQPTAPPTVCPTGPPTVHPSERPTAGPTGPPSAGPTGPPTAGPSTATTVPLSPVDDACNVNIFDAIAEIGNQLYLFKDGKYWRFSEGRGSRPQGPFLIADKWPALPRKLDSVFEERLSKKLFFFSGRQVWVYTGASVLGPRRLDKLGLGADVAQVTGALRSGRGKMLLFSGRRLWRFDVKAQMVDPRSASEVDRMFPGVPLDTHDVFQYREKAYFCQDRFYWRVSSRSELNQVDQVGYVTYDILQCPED

SMILES	Ki (MMP-9h; read-out: Ki MMP-9h) [nM]	Ki (MMP-13h; read-out: Ki MMP-13h) [nM]	Ki (MMP-10h; read-out: Ki MMP-10h) [nM]	Ki (MMP-1h; read-out: Ki MMP-1h) [nM]	selectivity factor F = Ki MMP-x/Ki MMP-12 (human MMPs [1])	Ki (MMP-12h [2]) [nM]	Ki (MMP-2h; read-out: Ki MMP-2h) [nM]	Ki (MMP-14h; read-out: Ki MMP-14h) [nM]	Ki (MMP-8h; read-out: Ki MMP-8h) [nM]	Ki (MMP-7h; read-out: Ki MMP-7h) [nM]	Ki (MMP-3h; read-out: Ki MMP-3h) [nM]	also measured
NC(=O)CC[C@H](NC(=O)[C@H](CCC(=O)O)NC(=O)CCc1ccc(-c2cc(-c3ccccc3)cs2)cc1)C(N)=O [Compound 99, (S)-5-((S)-1,5-diamino-1,5-dioxopentan-2-ylamino)-5-oxo-4-(3-(4-(4-phenylthiophen-2-yl)phenyl)propanamido)pentanoic acid]	> 5000	522	> 1000	> 10000	> 100	5.4	> 1000	> 1000	> 1000	> 10000	> 10000	
NC(=O)[C@H](CCC(=O)O)NC(=O)[C@H](CCC(=O)O)NC(=O)CCc1ccc(-c2ccccc2)cc1 [Compound 40, (S)-5-amino-4-((S)-2-(3-(biphenyl-4-yl)propanamido)-4-carboxybutanamido)-5-oxopentanoic acid]												by-product resulting from the compound ([3]; LC-MS and MS/MS): No by-product; amount detected in intact form ([3]; LC-MS, initial solution 10 nM): 50 fmol; loss of the starting material ([3]; attributed to nonspecific association with the eppendorf wall): 50%; Ki (MMP-9h): > 1000 nM; Ki (MMP-13h): 689 nM; Ki (MMP-10h): > 1000 nM; Ki (MMP-1h): > 100000 nM; Ki (MMP-2h): 445 nM; Ki (MMP-14h): > 5000 nM; Ki (MMP-8h): 226 nM; Ki (MMP-7h): > 10000 nM; Ki (MMP-3h): > 5000 nM
NC(=O)[C@H](CCC(=O)O)NC(=O)[C@H](CCC(=O)O)NC(=O)[C@@H](CC(=O)O)Cc1ccc(-c2cc(-c3ccccc3)cs2)cc1 [95 bis, (S)-5-amino-4-((S)-4-carboxy-2-((R)-3-carboxy-2-(4-(4-phenylthiophen-2-yl)benzyl)propanamido)butanamido)-5-oxopentanoic acid]	> 1000	198	80	> 1000	> 100	0.3	401	118	520	> 1000	579	Selectivity factor/MMP12, MMP-9h (MMP-9h; Ki MMP-9h/Ki MMP-12): 3333; Selectivity factor/MMP12, MMP-13h (MMP-13h; Ki MMP-13h/Ki MMP-12): 660; Selectivity factor/MMP12, MMP-10h (MMP-10h; Ki MMP-10h/Ki MMP-12): 270; Selectivity factor/MMP12, MMP-1h (MMP-1h; Ki MMP-1h/Ki MMP-12): 3333; improvement of affinity with respect to MMP-12 compared with compound 95 (factor) (MMP-12h [2]): 6; Selectivity factor/MMP12, MMP-12h (MMP-12h [2]; Ki MMP-12h/Ki MMP-12): 1; Selectivity factor/MMP12, MMP-2h (MMP-2h; Ki MMP-2h/Ki MMP-12): 1340; Selectivity factor/MMP12, MMP-14h (MMP-14h; Ki MMP-14h/Ki MMP-12): 395; Selectivity factor/MMP12, MMP-8h (MMP-8h; Ki MMP-8h/Ki MMP-12): 1730; Selectivity factor/MMP12, MMP-7h (MMP-7h; Ki MMP-7h/Ki MMP-12): 3333; Selectivity factor/MMP12, MMP-3h (MMP-3h; Ki MMP-3h/Ki MMP-12): 1930
NC(=O)[C@H](CCC(=O)O)NC(=O)[C@H](CCC(=O)O)NC(=O)[C@H](Cc1cc(-c2ccc(-c3cccc(Cl)c3)cc2)no1)CP(=O)(O)c1ccc(Br)cc1 [RXP470, reference compound]	850	13	8.3			0.2	72	80	77		58	potency toward MMPs 1, 2, 3, 7, 8, 9, 11, 13 and 14 compared with MMP-12 (human MMPs [4]): two to three orders of magnitude less powerful; Ki (MMP-12h [5]): 0.4 nM
Cc1ccc(-c2ccc(CCC(=O)N[C@@H](CCC(=O)O)C(=O)N[C@@H](CCC(=O)O)C(N)=O)cc2)s1 [Compound 91, (S)-5-amino-4-((S)-4-carboxy-2-(3-(4-(5-methylthiophen-2-yl)phenyl)propanamido)butanamido)-5-oxopentanoic acid]	242	564	353			1.84	97	> 1000	10.3		> 1000	concentration at 5 min [6]: 1000 nM
